Assay: Polymorphic stability of solid linezolid Form IV, alone and in contact with solvents
Format: physicochemical
From the text: As a consequence, pharmaceutical compositions comprising linezolid Form IV substantially free of linezolid Form II are difficult to prepare.

In the case of CC(=O)NC[C@H]1CN(c2ccc(N3CCOCC3)c(F)c2)C(=O)O1 [linezolid Form IV, N-[[(5S)-3-[3-fluoro-4-(4-morpholinyl)phenyl]-2-oxo-5-oxazolidinyl]methyl]acetamide], the “conversion of Form IV to Form II (in words)” value (contacted with solvents, in particular ethanol) is reported as “readily transforms to linezolid Form II” and the “conversion of solid Form IV to Form II (in words)” value (solid, at least 3 months at temperatures between 25 and 40° C.) is reported as “does not convert to linezolid Form II”.

From patent publication US20070020329A1, “Methods of formulating linezolid” (priority 2005, published 2007)
